Counter-ions that a name gives are not always drawn. Like-named read-outs stand apart in the source and are kept apart here.
Experiments:
Format in all cases: in vivo, human
[1] = system: recurrent genital herpes; assay: open-label 1-year study of suppressive therapy in patients previously on chronic acyclovir suppression
Description: OBJECTIVE: To document the number of genital herpes outbreaks during a 1-year period of suppressive therapy with valaciclovir hydrochloride in patients previously receiving chronic suppressive therapy with acyclovir. METHODS: A total of 127 patients (81 Males, 46 Females) from 11 study sites enrolled in this open-label study. […] Upon discontinuation of acyclovir, patients received 500 mg valaciclovir hydrochloride once daily. For any genital herpes recurrence, patients self-initiated treatment with valaciclovir hydrochloride 500 mg twice daily for 5 days, then resumed once daily therapy. Patients documented recurrences in a diary and returned to the clinic every three months for drug safety and recurrence evaluation.

[2] = system: frequently recurrent genital herpes; assay: double blind, placebo controlled multicentre clinical trial of once daily suppressive therapy; settings: 500 mg once daily
Description: In another study once daily valaciclovir (as the hydrochloride salt), was evaluated as suppressive therapy in a double blind, placebo controlled multicentre clinical trial in otherwise healthy immunocompetent patients with frequently recurrent genital herpes. A total of 382 patients with a history of >8 genital herpes recurrences per year were randomised (3:1) to treatment with once daily valaciclovir (500 mg) or placebo for 16 weeks. Patients experiencing a recurrence discontinued double blind therapy and received open label episodic valaciclovir (500 mg twice daily) for 5 days. They then continued on open label daily valaciclovir, as did those completing the 16 week double blind phase of study without evidence of a breakthrough recurrence, for a total of 48 weeks. Patients were assessed 4-weekly (double blind phase) and every 8 weeks thereafter. The primary efficacy end-point was time to first genital herpes recurrence.

[3] = system: genital herpes simplex virus (HSV) infection; settings: for recurrences prevented or delayed / recurrences experienced by placebo patients prevented or delayed: 52 weeks; for safety profiles (valaciclovir, aciclovir and placebo compared): in vivo
Text: Objective: To determine the efficacy and safety of 4 doses of oral valaciclovir compared with aciclovir and placebo for the suppression of genital herpes in otherwise healthy patients.
Methods: This study was a multi-centre, international, six-arm, parallel group, randomised, double-blind comparison of the efficacy and safety of 4 doses of oral valaciclovir with oral aciclovir and placebo for the suppression of recurrent episodes of genital herpes simplex virus (HSV) infection in immunocompetent patients. A total of 1279 patients with a history of recurrent genital herpes were randomised into one of 6 treatment arms with a 2:2:2:2:2:1 treatment allocation and followed for 52 weeks. Patients visited the clinic at monthly intervals and on Days 1 and 5 of a genital HSV recurrence. Safety was assessed by adverse experience reporting at each visit and by clinical chemistry and haematology testing every 3 or 6 months respectively.
274 patients received 250 mg twice daily valaciclovir (reference example); 269 patients received 1000 mg once daily valaciclovir; 266 patients received 500 mg once daily valaciclovir; 269 patients received 250 mg once daily valaciclovir; 267 patients received 400 mg twice daily aciclovir; and 134 patients received placebo.

[4] = 250 mg twice daily (reference example)
[5] = 400 mg twice daily, entire tenth study year of acyclovir suppression

| Structure (SMILES) | total recurrence free rate ([1]; 500 mg once daily, after six months of suppressive therapy (93 of 126 patients)) | patients remained free of recurrences ([1]; 500 mg once daily, after the first three months of suppressive therapy (102 of 126 patients)) | patients remained free of recurrences ([1]; 500 mg once daily, following the next three months of suppressive therapy (101 of 119 patients)) | tolerability ([1]; 500 mg once daily, for 6 months) | reduction in recurrence rate relative to placebo ([2]; 16 weeks, intent-to-treat population) | tolerability ([2]; adverse events infrequent and generally mild) | patients remained recurrence-free during the study period ([3]; 250 mg once daily, 12 months) | recurrences prevented or delayed ([3]; 250 mg once daily) | patients recurrence-free after 12 months [3, 4] | recurrences experienced by placebo patients prevented or delayed [3, 4] | patients recurrence-free at 12 months ([3]; 500 mg once daily) | recurrences prevented or delayed ([3]; 500 mg once daily) | patients recurrence-free after 12 months ([3]; 1000 mg once daily) | recurrences experienced by placebo patients prevented or delayed ([3]; 1000 mg once daily) | safety profiles (valaciclovir, aciclovir and placebo compared) [3] | mean quarterly recurrence free rate [1, 5] | yearly recurrence free rate [1, 5] | patients recurrence-free after 12 months ([3]; 400 mg twice daily) | recurrences experienced by placebo patients prevented or delayed ([3]; 400 mg twice daily) |
| --- | --- | --- | --- | --- | --- | --- | --- | --- | --- | --- | --- | --- | --- | --- | --- | --- | --- | --- | --- |
| CC(C)[C@H](N)C(=O)OCCOCn1cnc2c(=O)[nH]c(N)nc21 [valaciclovir hydrochloride, 2-[(2-amino-1,6-dihydro-6-oxo-9H-purin-9-yl)methoxy]ethyl-L-valinate hydrochloride] | 74% | 81% | 85% | well tolerated | – | – | – | – | – | – | – | – | – | – | – | – | – | – | – |
| CC(C)[C@H](N)C(=O)OCCOCn1cnc2c(=O)[nH]c(N)nc21 [valaciclovir, 2-[(2-amino-1,6-dihydro-6-oxo-9H-purin-9-yl)methoxy]ethyl L-valinate] | – | – | – | – | 85% | well tolerated | 22% | 54% | approximately half | 78-79% | Forty | 71% | approximately half | 78-79% | similar | – | – | – | – |
| Nc1nc2c(ncn2COCCO)c(=O)[nH]1 [acyclovir, 9-[(2-hydroxyethoxy)methyl]guanine, reference compound] | – | – | – | – | – | – | – | – | – | – | – | – | – | – | similar | 89% | 75% | approximately half | 78-79% |
